Experiments:
Type in all cases: cell-based, human
[1] = test system: CD4+ clone 436/B6.34 (B6/34); assay: TNF/IFN-γ production by CD4+ clone B6/34 stimulated with peptide-pulsed EBV-B cells; conditions: for TNF-α and IFN-γ production by clone B6/34: more physiologic or lower peptide concentrations
Description: (§1) In order to identify the MAGE-A3 peptides recognized by these CD4^+ clones, 16 amino acid peptides, corresponding to parts of the MAGE-A3 protein sequence were synthesized, loaded on the autologous EBV-B cells and tested for recognition (FIGS. 4 and 5). Peptides were synthesized using F-moc for transient NH2-terminal protection and were characterized using mass spectrometry. All peptides were >80% pure as indicated by analytical HPLC. Lyophilized synthetic peptides were dissolved in DMSO (Merck) and used at a final concentration of 500 μM, 50 μM or 5 μg/ml. EBV-B cells (5,000 per round-bottomed microwell) were incubated 2 hours at 37° C., 8% CO2 in the presence of the different peptides, the indicated concentrations representing the peptide concentration during the incubation step. CD4^+ clones were then added at 2,500 cells per well. Assay medium was Iscove's medium supplemented with L-glutamine, L-arginine, L-asparagine, 10% human serum and IL-2 (25 U/ml). After 18-20 hours, supernatants were harvested and assessed for TNF-α and/or IFN-γ secretion. IFN-γ production was measured using an ELISA test (20-4000 pg/ml) developed in the laboratory with reagents from Medgenix Diagnostics-Biosource (Fleurus, Belgium).

[2] = test system: CD4+ clone 436/B6.37 (B6/37); assay: IFN-γ/TNF production by CD4+ clone B6/37 (clone 37) stimulated with peptide- or protein-pulsed EBV-B cells; conditions: for TNF-α and IFN-γ production by clone B6/37: more physiologic or lower peptide concentrations
Description: The microcultures that contained proliferating CD4^+ T cells were assessed around 35 days after the start of the culture for their capacity to produce TNF and/or IFN-γ when stimulated with autologous EBV-B cells pulsed with the His-MAGE-A3 protein. Autologous EBV-B cells (500,000/ml) were incubated for 18-20 hours at 37° C. in the presence of 20 μg/ml of His-MAGE-A3 protein, or Ovalbumin (Sigma) as a negative control. EBV-B cells referred to herein are B cells which were immortalized with Epstein Barr virus. The EBV-B cells were prepared according to art-standard procedures. Protein-pulsed EBV-B cells were washed and added at 5,000 per round-bottomed microwell to 2,500 CD4^+ T lymphocytes in 150 μl of complete Iscove's medium supplemented with L-glutamine, L-arginine, L-asparagine, 10% human serum and IL-2 (25 U/ml). After 18-20 hours, supernatants were harvested and assessed for TNF content by testing the cytotoxic effect of the supernatants on TNF-sensitive WEHI 164 clone 13 cells as previously described (Espevik and Nissen-Meyer, J. Immunol. Methods 95:99-105, 1986) in a MTT colorimetric assay as previously described (Hansen et al., J. Immunol. Methods 119:203-210, 1989; Traversari et al., Immunogenetics 35:145-152, 1992). IFN-γ production was measured using an ELISA assay developed in our laboratory (see below) with reagents from Medgenix Diagnostics-Biosource (Fleurus, Belgium). Inhibition with mAbs W6/32 (anti-HLA class I) or 2B6 (anti-HLA-DR) was performed by addition of a 1/20 dilution of ascites during the experiment. Cytokine secretion in response to autologous EBV-B cells pulsed with MAGE-A3 was considered significant if it was at least twofold above the background response of T cells to EBV-B cells pulsed with ovalbumin, and if it exceeded 500 pg of IFN-γ or 50 pg/ml of TNF per ml.
as §1, with “All peptides were >80% pure as indicated by analytical HPLC.” left out
To further define the HLA-restriction element utilized by clone B6/37, additional EBV-B cell lines were used for peptide presentation as described above (FIG. 7).
Unlike HLA-class I-restricted peptides, class II-restricted peptides usually vary in length and tolerate extensions at both the amino and carboxy termini, because they are not fixed by their ends in the groove. It is therefore difficult to define precisely the length of the antigenic peptide. Therefore a large number of MAGE-A3 peptides were tested at different concentrations (Tables IV and V). […] 2500 cells of clone 37 were then cocultured for 20 h in round-bottomed microwells with 5000 peptide-pulsed cells. IFN-γ released in the supernatant of the cocultures was measured in an ELISA assay. The experiments were performed in triplicate.

B6 clones = assay: Proliferation of B6 clones induced by peptide-pulsed autologous EBV-B cells; conditions: autologous EBV-B cells pulsed with peptide (FIG. 6)
[3] = EBV-B cell line BM16, DR13 negative
[4] = EBV-B cell line BOB, DR13 negative
[5] = EBV-B cell line BOLETH, DR13 negative
[6] = EBV-B cell line LB1118, DR13 positive
[7] = EBV-B cell line LB1555, DR13 positive
[8] = EBV-B cell line LB1622, DR13 positive
[9] = EBV-B cell line LKT3, DR13 negative
[10] = EBV-B cell line MZ2, DR13 positive
[11] = EBV-B cell line OLGA, DR13 negative
[12] = EBV-B cell line OMW, DR13 positive
[13] = EBV-B cell line RML, DR13 negative
[14] = EBV-B cell line RSH, DR13 negative
[15] = EBV-B cell line TAB089, DR13 negative
[16] = EBV-B cell line TISI, DR13 negative
[17] = EBV-B cell line VAF, DR13 negative
[18] = EBV-B cell line VET, DR13 negative
[19] = peptide at 500 μM (non-physiologic), autologous EBV-B cells

| Substance | activation of clone B6/34 by 16 amino acid peptides [1] | TNF-α and IFN-γ production by clone B6/34 [1] | activation of clone B6/37 by 16 amino acid peptides [2] | IFN-γ production by clone B6/37 stimulated by peptide [2, 3] [pg/mL] | IFN-γ production by clone B6/37 stimulated by peptide [2, 4] [pg/mL] | IFN-γ production by clone B6/37 stimulated by peptide [2, 5] [pg/mL] | IFN-γ production by clone B6/37 stimulated by peptide [2, 6] [pg/mL] | IFN-γ production by clone B6/37 stimulated by peptide [2, 7] [pg/mL] | IFN-γ production by clone B6/37 stimulated by peptide [2, 8] [pg/mL] | IFN-γ production by clone B6/37 stimulated by peptide [2, 9] [pg/mL] | IFN-γ production by clone B6/37 stimulated by peptide [2, 10] [pg/mL] | IFN-γ production by clone B6/37 stimulated by peptide [2, 11] [pg/mL] | IFN-γ production by clone B6/37 stimulated by peptide [2, 12] [pg/mL] | IFN-γ production by clone B6/37 stimulated by peptide [2, 13] [pg/mL] | IFN-γ production by clone B6/37 stimulated by peptide [2, 14] [pg/mL] | IFN-γ production by clone B6/37 stimulated by peptide [2, 15] [pg/mL] | IFN-γ production by clone B6/37 stimulated by peptide [2, 16] [pg/mL] | IFN-γ production by clone B6/37 stimulated by peptide [2, 17] [pg/mL] | IFN-γ production by clone B6/37 stimulated by peptide [2, 18] [pg/mL] | TNF-α and IFN-γ production by clone B6/37 [2] | also measured |
| --- | --- | --- | --- | --- | --- | --- | --- | --- | --- | --- | --- | --- | --- | --- | --- | --- | --- | --- | --- | --- | --- |
| ELVHFLLLKYRAREPV (listed as Homo sapiens) [MAGE-A3115-130] | stimulated specifically | stimulated specifically | stimulated specifically | 120 | 101 | 67 | 3909 | >4000 | 1349 | 27 | 3096 | 68 | >4000 | 129 | 87 | 55 | 179 | 178 | 135 | stimulated specifically | proliferation of the B6 clones (B6 clones): able to induce the proliferation |
| RKVAELVHFLLLKYRA (listed as Homo sapiens) [MAGE-A3111-126] | stimulated specifically | stimulated specifically | stimulated specifically | 99 | 128 | 77 | 3761 | >4000 | 1731 | 6 | 3429 | 117 | >4000 | 134 | 140 | 52 | 119 | 62 | 105 | stimulated specifically | proliferation of the B6 clones (B6 clones): able to induce the proliferation |
| MAGE-A3159-174: 16 amino acid synthetic peptide corresponding to residues 159-174 of the MAGE-A3 protein (QLVFGIELMEVDPIGH; listed as Homo sapiens) |  |  |  |  |  |  |  |  |  |  |  |  |  |  |  |  |  |  |  |  | activation of clone B6/34 ([1]; peptide at 50 μM): not effective; activation of clone B6/34 [1, 19]: induced activation; activation of clone B6/37 ([2]; peptide at 50 μM): not effective; activation of clone B6/37 [2, 19]: induced activation |
